Results on eleven compounds are retold here after EP0810221A1 (MITSUBISHI CHEMICAL CORPORATION, priority 1995, dated 1996).

Usually IC50 stands for the concentration that inhibits the measured activity by half. The low end stands for inhibition by little substance, the high end for a need for much substance. For orientation: LD50 means the dose expected to kill half of the subjects tested. A higher LD50 goes with a less toxic substance.

One series concerns IgE. The following applies: cited from earlier work.
The next series concerns IgG. The following applies: cited from earlier work.
The conditions of series [1]: rats, osteoclasia accentuated by parathormone; cited from earlier work.
Series [2] has as its target T1, cathepsin B (Sigma, C-6286) (Bos taurus, UniProt P07688).
T1 construct: purchased Sigma C-6286
Put plainly: Inhibitory activity against cathepsin B. Type of series: biochemical. The following applies: Inhibitory activity against cathepsin B (Table-5). As to the method:
Inhibitory activity against cathepsin B (Sigma, C-6286) was determined according to a method described in a literature (Biochemical Journal, Vol. 201, p. 189, 1982).

The target in another series is T2, m-Calpain (Rattus norvegicus, UniProt Q07009).
T2 construct: m-Calpain was purified from brains of rats; from tissue; host or cells: rat brain
T2 sequence (Q07009 20-700 limits assumed): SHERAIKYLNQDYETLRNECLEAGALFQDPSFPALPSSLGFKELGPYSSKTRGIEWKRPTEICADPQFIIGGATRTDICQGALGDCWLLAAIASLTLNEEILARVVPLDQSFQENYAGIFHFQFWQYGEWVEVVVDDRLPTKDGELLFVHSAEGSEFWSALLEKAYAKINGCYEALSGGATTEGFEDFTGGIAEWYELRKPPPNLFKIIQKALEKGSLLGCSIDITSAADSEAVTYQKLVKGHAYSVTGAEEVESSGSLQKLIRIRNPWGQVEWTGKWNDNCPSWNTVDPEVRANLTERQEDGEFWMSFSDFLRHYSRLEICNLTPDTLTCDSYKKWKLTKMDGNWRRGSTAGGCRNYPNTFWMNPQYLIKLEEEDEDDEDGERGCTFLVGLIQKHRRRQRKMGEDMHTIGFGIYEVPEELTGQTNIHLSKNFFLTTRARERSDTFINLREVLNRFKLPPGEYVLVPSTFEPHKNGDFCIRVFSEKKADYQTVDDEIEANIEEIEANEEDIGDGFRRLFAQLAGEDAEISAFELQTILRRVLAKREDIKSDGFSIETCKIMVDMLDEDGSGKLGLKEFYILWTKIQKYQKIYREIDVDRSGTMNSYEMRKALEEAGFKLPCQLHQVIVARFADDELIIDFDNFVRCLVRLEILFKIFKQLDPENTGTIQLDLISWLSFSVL
T2 sequence (Q64537 1-270 partner): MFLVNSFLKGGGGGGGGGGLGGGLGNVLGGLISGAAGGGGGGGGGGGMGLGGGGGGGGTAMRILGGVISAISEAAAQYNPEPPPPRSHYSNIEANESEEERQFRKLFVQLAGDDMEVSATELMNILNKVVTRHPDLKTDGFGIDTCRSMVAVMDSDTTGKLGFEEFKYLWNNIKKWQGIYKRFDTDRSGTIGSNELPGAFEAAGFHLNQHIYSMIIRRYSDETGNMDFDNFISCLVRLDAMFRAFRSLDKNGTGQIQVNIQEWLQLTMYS
Description: Inhibitory activity against calpain (m-Calpain purified from brains of rats). The class given is biochemical. The following applies: Inhibitory activity against calpain (continuation of Table-6). As to the method:
m-Calpain was purified from brains of rats according to a method described in a literature (Journal of Biological Chemistry, Vol. 259, p. 3210, 1984), and the inhibitory activity was determined in a manner according to a published method (Journal of Biological Chemistry, Vol. 259, p. 12489, 1984).

Series [3] in a line: Acute toxicity test, oral. As to conditions: both sexes, rat, in vivo, orally administered, suspended in 0.5% aqueous CMC-Na, SD male and female rats, observed for seven days. The source says: Compounds of the present invention was suspended in 0.5% aqueous solution of CMC-Na and the suspensions were orally administered to SD male and female rats.
The test system of series [4] is experimental model of cataract. The following applies: cited from earlier work.

As to `NC(N)=NCCCCNC(=O)[C@H](Cc1ccccc1)NC(=O)[C@H]1O[C@@H]1C(=O)O` [Estatin A], the “production of IgE” value in the series on IgE is “specifically suppresses”. The “production of IgG” value in the series with IgG is “does not affect”. Also, in series [1], the hydroxyproline concentration result is on record as “lowered” and the serum calcium concentration result was “lowered”.
Take `CC(C)C[C@H](NC(=O)c1ccc2ccccc2c1)C(=O)N[C@H]1CCOC1O` (stereo partly drawn) [Example 60, (3S)-3-{(S)-4-methyl-2-(2-naphthoylamino)valerylamino}-2-tetrahydrofuranol]: the figures for the concentration for half-maximal inhibition (IC50) (in series [2]; against m-Calpain) were 34 nM and 470 nM, respectively.
Take `CC(C)C[C@H](NC(=O)c1ccco1)C(=O)N[C@H]1CCOC1O` (stereo partly drawn) [Example 61, (3S)-3-{(S)-2-(2-furoylamino)-4-methylvalerylamino}-2-tetrahydrofuranol]: the IC50 in series [2] stood at 1200 nM; against m-Calpain it was 350 nM.
For `CCc1cc(C(=O)N[C@@H](CC(C)C)C(=O)N[C@H]2CCOC2O)n(C)n1` (stereo partly drawn) [Example 62, (3S)-3-{(S)-2-(3-ethyl-1-methyl-5-pyrazole)carbonylamino-4-methylvalerylamino}-2-tetrahydrofuranol] the same measures were 500 nM and 1000 nM.
`COc1ccc(C=CC(=O)N[C@@H](CC(C)C)C(=O)N[C@H]2CCOC2O)cc1` (stereo partly drawn) [Example 65, (3S)-3-{(S)-2-(4-methoxycinnamoylamino)-4-methylvalerylamino}-2-tetrahydrofuranol]: the IC50 in series [2] amounted to 190 nM; at m-Calpain, 700 nM.
For `CC(C)C[C@H](NS(=O)(=O)c1cccc2ccccc12)C(=O)N[C@H]1CCOC1O` (stereo partly drawn) [Example 75, (3S)-3-{(S)-4-methyl-2-(1-naphtylsulfonylamino)valerylamino}-2-tetrahydrofuranol], the 50% inhibitory concentration (IC50) in series [2] stood at 2400 nM; at m-Calpain, 380 nM.
As for `CC(C)C[C@H](NS(=O)(=O)c1cccnc1)C(=O)N[C@H]1CCOC1O` (stereo partly drawn) [Example 77, (3S)-3-{(S)-4-methyl-2-(3-pyridylsulfonylamino)valerylamino}-2-tetrahydrofuranol], the concentration for half-maximal inhibition (IC50) in series [2] was 400 nM; on m-Calpain, 1000 nM.
For the compound `CC(C)C[C@H](NC(=O)[C@H](CC(C)C)NS(=O)(=O)c1ccccc1)C(=O)N[C@H]1CCOC1O` (stereo partly drawn) [Example 87, (3S)-3-{(S)-2-((S)-4-methyl-2-phenylsulfonylaminovalerylamino)-4-methylvalerylamino}-2-tetrahydrofuranol], the figures for the IC50 (in series [2]; against m-Calpain) were 1300 nM and 780 nM, respectively.
In turn, `CC(=O)O[C@@H]1OCC[C@@H]1NC(=O)[C@H](CC(C)C)NC(=O)c1ccccc1F` [Example 96, (2S,3S)-2-acetoxy-3-{(S)-2-(2-fluorobenzoylamino)-4-methylvalerylamino}tetrahydrofuran] gave an LD50 at 7 days in series [3] below 2000 mg/kg.
For the compound `CC(=O)O[C@@H]1OCC[C@@H]1NC(=O)[C@H](CC(C)C)NS(=O)(=O)c1ccc(C)cc1` [Example 106, (2S,3S)-2-acetoxy-3-{(S)-4-methyl-2-(4-methylphenylsulfonylamino)valerylamino}tetrahydrofuran], the 50% lethal dose (LD50) at 7 days in series [3] is below 2000 mg/kg.
For the compound `CC(C)C[C@H](NC(=O)[C@H]1O[C@@H]1C(=O)O)C(=O)NCCCCN=C(N)N` [Example E-64, E-64], the “efficacy in an experimental model of cataract” value in series [4] is reported as “effective”. In series [1], the hydroxyproline concentration result is listed as “lowered” and the serum calcium concentration entry is given as “lowered”.
